Results reported in ChEMBL document CHEMBL1201862, “PubChem BioAssay data set” (2004).
The source made the active and inactive calls.

Assays:
[1] = Late-stage probe development counterscreen for inhibitors of the Hepatitis C Virus non-structural protein 3 helicase (NS3): luminescence-based cell-based dose response assay to determine whether compounds that inhibit replication of HCV RNA replicon are cytotoxic. [Related pubchem assays (depositor defined):AID1800, AID1830, AID1845, AID1943, AID1945, AID2172, AID2173, AID2474, AID2476]; type: functional
[2] = target: NS3 (Hepatitis C virus, UniProt A3EZJ3); assay: PubChem AID 2173; design: species or system Hepacivirus hominis
[3] = target: Hexokinase-1 (Homo sapiens, UniProt P19367); assay: hexokinase 1 activity inhibitors, potency – biochemical, set 2, resazurin fluorescence coupled readout, selectivity assay for HKDC1 inhibitor project, SAR follow-up (AID 588356); type: functional
[4] = target: T1, Hexokinase HKDC1 (Homo sapiens, UniProt Q2TB90); assay: analog inhibition of human HKDC1 activity – biochemical, set 2, SAR follow-up (AID 588355); type: functional
T1 sequence (Q2TB90 whole entry): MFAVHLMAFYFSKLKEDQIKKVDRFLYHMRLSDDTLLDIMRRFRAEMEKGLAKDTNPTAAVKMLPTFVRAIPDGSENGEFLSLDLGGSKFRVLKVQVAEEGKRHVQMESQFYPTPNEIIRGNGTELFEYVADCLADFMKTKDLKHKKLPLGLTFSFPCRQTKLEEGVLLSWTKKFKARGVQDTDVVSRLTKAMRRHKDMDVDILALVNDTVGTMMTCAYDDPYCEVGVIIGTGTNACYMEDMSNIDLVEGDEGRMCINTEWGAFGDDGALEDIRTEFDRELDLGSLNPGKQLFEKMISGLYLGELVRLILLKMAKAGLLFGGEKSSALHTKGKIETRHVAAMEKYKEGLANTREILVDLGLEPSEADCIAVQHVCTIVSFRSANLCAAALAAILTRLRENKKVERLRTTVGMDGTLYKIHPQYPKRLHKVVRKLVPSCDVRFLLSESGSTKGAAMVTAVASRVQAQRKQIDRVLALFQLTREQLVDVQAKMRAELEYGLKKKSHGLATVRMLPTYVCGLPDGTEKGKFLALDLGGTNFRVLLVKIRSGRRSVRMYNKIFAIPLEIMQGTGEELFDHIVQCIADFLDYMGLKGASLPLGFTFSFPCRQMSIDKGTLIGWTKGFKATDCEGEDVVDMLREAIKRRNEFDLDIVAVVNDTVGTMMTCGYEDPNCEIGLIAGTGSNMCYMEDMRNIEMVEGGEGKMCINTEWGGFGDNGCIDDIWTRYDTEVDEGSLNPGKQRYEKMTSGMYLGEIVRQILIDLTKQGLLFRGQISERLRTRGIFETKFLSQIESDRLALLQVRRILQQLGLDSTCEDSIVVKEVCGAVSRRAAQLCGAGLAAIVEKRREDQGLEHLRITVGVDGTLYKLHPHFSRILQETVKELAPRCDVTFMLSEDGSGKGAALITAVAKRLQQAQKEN

[5] = system: Escherichia coli; assay: microbe, parasite or virus in culture
[6] = system: HeLa; assay: ATP-based viability loss in HeLa cells – cell-based, CellTiter-Glo luminescence, cherry-pick samples, cytotoxicity control for MITF activator project, dose response (AID 540259); type: functional; details: Homo sapiens
[7] = target: T2, Rac GTPase-activating protein 1 (Homo sapiens, UniProt Q9H0H5); assay: blockers of MgcRacGAP-driven Rac1 GTP hydrolysis – biochemical, ADP Hunter fluorescence, primary and confirmatory, confirmation (AID 624330); type: functional
T2 sequence (Q9H0H5 whole entry): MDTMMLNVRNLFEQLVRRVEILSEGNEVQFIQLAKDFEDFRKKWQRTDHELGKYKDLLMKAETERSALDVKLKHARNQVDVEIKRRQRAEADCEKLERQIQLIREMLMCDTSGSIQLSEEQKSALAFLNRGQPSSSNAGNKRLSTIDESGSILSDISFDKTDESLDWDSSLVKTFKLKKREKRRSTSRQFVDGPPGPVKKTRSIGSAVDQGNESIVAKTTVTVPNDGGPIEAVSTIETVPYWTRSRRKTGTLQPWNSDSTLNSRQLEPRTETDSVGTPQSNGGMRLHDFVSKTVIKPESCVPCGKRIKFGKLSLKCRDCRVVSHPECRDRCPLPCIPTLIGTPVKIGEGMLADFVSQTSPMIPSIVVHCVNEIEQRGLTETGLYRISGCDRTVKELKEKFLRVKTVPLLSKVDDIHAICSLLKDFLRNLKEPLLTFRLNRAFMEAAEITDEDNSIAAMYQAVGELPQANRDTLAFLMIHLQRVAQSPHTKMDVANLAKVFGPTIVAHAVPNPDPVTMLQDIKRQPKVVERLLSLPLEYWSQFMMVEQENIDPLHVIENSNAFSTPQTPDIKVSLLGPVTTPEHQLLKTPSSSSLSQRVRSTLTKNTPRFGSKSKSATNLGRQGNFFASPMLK

[8] = target: Delta-type opioid receptor (Homo sapiens, UniProt P41143); assay: Counterscreen for agonists of heterodimerization of the mu 1 (OPRM1) and delta 1 (OPRD1) opioid receptors: Luminescence-based cell-based high throughput dose response assay to identify agonists of OPRD1 homodimerization. [Related pubchem assays (depositor defined):AID504326, AID504355, AID504692, AID504904, AID504905]; type: functional
[9] = target: 5-hydroxytryptamine receptor 5A (Homo sapiens, UniProt P47898); assay: Counterscreen for agonists of OPRM1-OPRD1 heterodimerization: luminescence-based cell-based high throughput dose response assay to identify agonists of 5-hydroxytryptamine (serotonin) 5A receptor (HTR5A). [Related pubchem assays (depositor defined):AID504326, AID504355, AID504692, AID504904, AID504905]; type: functional
[10] = target: T3, DNA repair protein RAD52 homolog (Homo sapiens, UniProt P43351); type: functional, biochemical
T3 sequence (P43351 whole entry): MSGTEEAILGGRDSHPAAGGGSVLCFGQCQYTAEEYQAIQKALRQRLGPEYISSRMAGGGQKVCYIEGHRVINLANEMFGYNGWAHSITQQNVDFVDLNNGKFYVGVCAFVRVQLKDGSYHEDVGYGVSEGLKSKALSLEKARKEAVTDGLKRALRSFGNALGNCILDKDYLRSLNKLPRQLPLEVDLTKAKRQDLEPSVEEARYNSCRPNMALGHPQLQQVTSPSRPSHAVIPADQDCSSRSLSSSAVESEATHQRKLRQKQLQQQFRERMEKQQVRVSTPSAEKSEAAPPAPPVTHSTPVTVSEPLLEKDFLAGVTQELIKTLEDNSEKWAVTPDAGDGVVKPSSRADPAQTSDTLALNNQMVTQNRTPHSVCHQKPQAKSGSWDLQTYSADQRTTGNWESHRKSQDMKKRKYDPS

[11] = target: Mu-type opioid receptor (Homo sapiens, UniProt P35372); assay: Counterscreen for agonists of heterodimerization of the mu 1 (OPRM1) and delta 1 (OPRD1) opioid receptors: Luminescence-based cell-based high throughput dose response assay to identify agonists of OPRM1 homodimerization.; type: functional;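 further: U2OS cells expressing OPRM1 and beta-arrestin as split beta-galactosidase partners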
[12] = system: Jurkat; assay: blockers of NF-kB activation in T cells – Jurkat, luciferase reporter, luminescence, B- and T-cell, dose response (AID 489004); type: functional, cell-based; details: Homo sapiens;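 further: NF-kB luciferase reporter Jurkat cells stimulated with PMA plus ionomycin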
[13] = system: INS1; assay: INS-1E survival protection against cytokine death – cell-based, luminescence, retest, dose response (AID 449756); type: functional; details: Rattus norvegicus;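 further: cell death triggered by IL-1 beta plus TNF-alpha plus IFN-gamma mixture; protective hits raise ATP signal compared with cytokine alone wells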
[14] = cells; type: functional, cell-based; details: HEK-CNG
[15] = HEK-293T viability loss, compound-treated – cell-based, uHTS hits, cytotoxicity control for B/T-cell NF-kB inhibitor project, dose response (AID 489019); type: functional;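 further: IC50 reflects cytotoxicity as loss of cell viability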
[16] = target: T4, COUP transcription factor 2 (Homo sapiens, UniProt P24468); assay: Luminescence-based cell-based high throughput dose response assay to identify inhibitors of COUP-TFII (NR2F2).; type: functional;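 further: HEK293 cells transiently cotransfected with COUP-TFII expression vector and reporter; luciferase reporter luminescence driven by COUP-TFII from the pX2-168 reporter plasmid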
T4 sequence (P24468 whole entry): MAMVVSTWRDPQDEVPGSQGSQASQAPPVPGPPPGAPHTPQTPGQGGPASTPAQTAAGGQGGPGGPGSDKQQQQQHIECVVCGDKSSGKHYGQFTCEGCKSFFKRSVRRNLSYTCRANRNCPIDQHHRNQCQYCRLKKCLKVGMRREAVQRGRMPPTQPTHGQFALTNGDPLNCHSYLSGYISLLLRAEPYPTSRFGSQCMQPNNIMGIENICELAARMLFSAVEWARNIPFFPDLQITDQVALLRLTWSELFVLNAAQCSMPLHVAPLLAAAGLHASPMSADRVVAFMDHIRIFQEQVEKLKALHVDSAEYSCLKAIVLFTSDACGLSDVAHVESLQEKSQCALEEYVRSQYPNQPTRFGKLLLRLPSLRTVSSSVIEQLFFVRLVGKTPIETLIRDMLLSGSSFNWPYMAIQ

[17] = non-specific 3'UTR reporter inhibition in Clone20-Shn3RL – cell-based, Renilla luciferase, cherry-picked, counter-screen for Shn3 inhibitor project, dose response (AID 624133); type: functional
[18] = reduction of Shn3 3'UTR-driven luciferase in osteoblasts – cell-based, Clone20 osteoblasts, firefly luciferase, cherry-picked, dose response (AID 624132); type: functional;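 further: firefly luciferase luminescence from reporter carrying the Shn3 3'UTR in osteoblasts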
[19] = target: Galanin receptor type 3 (Homo sapiens, UniProt O60755); assay: Fluorescence-based cell-based primary high throughput dose response assay to identify antagonists of the Galanin Receptor 3 (GalR3).; type: functional
[20] = target: Beta-galactosidase (Escherichia coli, UniProt Q8VNN2); assay: detection-enzyme interference by beta-gal modulators – biochemical, E. coli enzyme, set 3, artefact control for CCR6 antagonist project, dose response (AID 504712); type: functional
[21] = THP-1 cell cytotoxicity, dose response, cytotoxicity control for non-replicating M. tuberculosis project (AID 489025); type: functional
[22] = target: T5, Microphthalmia-associated transcription factor (Homo sapiens, UniProt O75030); assay: reducers of TRPM1 reporter luminescence, concentration series – cell-based, SK-MEL-5, cherry-picked, set 3, MITF inhibitor project, dose response (AID 493073); type: functional;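 further: SK-MEL-5 melanoma cells with luciferase driven by the MITF target TRPM1 promoter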
T5 sequence (O75030 whole entry): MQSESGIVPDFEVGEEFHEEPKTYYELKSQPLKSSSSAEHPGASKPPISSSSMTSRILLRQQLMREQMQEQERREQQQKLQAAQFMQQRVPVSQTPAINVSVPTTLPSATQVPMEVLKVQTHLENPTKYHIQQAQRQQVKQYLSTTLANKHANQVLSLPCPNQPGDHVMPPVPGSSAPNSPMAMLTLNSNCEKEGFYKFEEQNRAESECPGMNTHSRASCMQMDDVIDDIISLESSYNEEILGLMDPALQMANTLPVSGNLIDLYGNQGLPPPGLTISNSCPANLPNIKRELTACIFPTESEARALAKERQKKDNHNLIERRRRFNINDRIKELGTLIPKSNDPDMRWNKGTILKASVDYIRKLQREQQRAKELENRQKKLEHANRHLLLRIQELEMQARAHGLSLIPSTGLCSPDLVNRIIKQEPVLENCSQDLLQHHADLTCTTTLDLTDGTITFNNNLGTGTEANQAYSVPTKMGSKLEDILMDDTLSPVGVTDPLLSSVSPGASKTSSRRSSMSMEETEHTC

[23] = system: A-375; assay: MITF: Counter assay: A375 proliferation Measured in Cell-Based System Using Plate Reader - 2084-03_Inhibitor_Dose_DryPowder_Activity. [Related pubchem assays (depositor defined):AID488944]; type: functional; details: Homo sapiens
[24] = NIH-3T3 fibroblast cytotoxicity, dose response, cytotoxicity control, cell-based, fluorescence, Alamar Blue, secondary assay (AID 2327); type: functional;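 further: NIH-3T3 mouse fibroblasts cultured with fluconazole at 8 µg/mL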
[25] = cells; type: functional
[26] = system: A-375; assay: proliferation inhibition in MITF-low A375 cells – cell-based, cherry-pick samples, set 2, counter-screen for MITF modulator project, dose response (AID 540335); type: functional; details: Homo sapiens
[27] = target: Galanin receptor type 2 (Homo sapiens, UniProt O43603); assay: Dose Response cell-based high-throughput screening assay to identify antagonists of galanin receptor 2 (GALR2). [Related pubchem assays: 828, 866 ]; type: functional
[28] = fluconazole-exposed Candida albicans growth modulators – fluorescence, retest, confirmation (AID 2467); type: functional, cell-based
[29] = target: Heat shock protein HSP 90-alpha (Homo sapiens, UniProt P07900); type: functional, organism-based

NS3, sequence (A3EZJ3 whole entry): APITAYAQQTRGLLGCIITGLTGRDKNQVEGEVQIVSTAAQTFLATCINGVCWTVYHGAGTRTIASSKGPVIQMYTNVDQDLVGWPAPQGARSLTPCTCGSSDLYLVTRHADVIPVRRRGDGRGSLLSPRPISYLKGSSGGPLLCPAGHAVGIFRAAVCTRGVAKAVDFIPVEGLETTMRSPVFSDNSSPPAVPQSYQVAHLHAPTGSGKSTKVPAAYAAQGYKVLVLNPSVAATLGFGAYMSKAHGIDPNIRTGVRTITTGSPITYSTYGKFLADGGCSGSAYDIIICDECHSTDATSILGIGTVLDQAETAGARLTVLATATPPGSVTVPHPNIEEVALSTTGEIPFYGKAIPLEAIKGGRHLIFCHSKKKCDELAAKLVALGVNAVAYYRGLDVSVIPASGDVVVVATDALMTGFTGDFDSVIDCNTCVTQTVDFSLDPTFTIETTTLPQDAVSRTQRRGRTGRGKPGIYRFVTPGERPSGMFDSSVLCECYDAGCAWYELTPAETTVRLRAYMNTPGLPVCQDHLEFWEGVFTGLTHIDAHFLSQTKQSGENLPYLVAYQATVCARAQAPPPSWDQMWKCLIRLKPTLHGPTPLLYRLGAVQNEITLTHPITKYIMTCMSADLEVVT
Delta-type opioid receptor, sequence (P41143 whole entry): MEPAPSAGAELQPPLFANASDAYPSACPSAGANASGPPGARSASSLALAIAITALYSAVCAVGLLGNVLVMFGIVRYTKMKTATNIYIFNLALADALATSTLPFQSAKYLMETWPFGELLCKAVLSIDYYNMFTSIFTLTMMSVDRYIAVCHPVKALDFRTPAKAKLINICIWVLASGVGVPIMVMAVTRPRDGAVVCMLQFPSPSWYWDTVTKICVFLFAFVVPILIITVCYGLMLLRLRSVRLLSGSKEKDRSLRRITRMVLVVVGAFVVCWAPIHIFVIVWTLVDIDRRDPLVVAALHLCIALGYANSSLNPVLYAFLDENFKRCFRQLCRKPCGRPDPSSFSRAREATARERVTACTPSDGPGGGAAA
Beta-galactosidase, sequence (Q8VNN2 whole entry): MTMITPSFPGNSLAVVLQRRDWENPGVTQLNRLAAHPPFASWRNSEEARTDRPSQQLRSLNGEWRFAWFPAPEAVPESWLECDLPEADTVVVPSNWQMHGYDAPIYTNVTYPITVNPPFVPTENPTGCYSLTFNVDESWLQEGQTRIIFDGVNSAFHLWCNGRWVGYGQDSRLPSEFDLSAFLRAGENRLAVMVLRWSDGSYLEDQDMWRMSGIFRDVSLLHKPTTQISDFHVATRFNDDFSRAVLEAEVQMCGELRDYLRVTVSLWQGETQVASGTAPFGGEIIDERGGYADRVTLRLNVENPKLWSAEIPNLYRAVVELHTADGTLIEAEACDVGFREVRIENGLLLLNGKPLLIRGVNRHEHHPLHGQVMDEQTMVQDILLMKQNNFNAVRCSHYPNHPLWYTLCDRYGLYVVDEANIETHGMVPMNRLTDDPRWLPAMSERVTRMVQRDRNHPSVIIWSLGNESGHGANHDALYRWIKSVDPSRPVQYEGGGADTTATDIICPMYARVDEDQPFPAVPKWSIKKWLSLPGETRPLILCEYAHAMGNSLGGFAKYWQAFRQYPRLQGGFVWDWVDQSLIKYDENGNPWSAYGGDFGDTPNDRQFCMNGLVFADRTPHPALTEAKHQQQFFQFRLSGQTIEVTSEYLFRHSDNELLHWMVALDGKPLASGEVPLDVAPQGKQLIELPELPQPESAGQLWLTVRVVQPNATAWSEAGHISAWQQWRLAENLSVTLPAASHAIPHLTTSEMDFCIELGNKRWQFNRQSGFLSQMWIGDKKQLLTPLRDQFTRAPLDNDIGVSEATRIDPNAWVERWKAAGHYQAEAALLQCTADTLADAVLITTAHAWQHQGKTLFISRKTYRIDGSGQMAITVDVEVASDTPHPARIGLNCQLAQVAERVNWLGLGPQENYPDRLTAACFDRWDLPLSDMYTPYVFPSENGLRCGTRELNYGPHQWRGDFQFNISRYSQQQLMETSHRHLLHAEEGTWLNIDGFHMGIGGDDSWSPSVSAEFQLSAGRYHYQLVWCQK
Mu-type opioid receptor, sequence (P35372 whole entry): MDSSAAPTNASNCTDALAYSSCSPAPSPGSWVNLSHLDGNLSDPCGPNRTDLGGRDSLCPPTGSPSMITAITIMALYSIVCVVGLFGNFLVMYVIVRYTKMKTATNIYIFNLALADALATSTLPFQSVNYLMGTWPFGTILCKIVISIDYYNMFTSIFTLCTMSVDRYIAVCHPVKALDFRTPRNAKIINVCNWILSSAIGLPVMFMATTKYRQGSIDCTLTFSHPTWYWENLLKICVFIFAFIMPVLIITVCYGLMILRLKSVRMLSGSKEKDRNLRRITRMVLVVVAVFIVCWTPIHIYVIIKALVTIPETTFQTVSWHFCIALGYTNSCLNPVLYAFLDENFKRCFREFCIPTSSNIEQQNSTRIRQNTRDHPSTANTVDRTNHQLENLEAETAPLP
Galanin receptor type 3, sequence (O60755 whole entry): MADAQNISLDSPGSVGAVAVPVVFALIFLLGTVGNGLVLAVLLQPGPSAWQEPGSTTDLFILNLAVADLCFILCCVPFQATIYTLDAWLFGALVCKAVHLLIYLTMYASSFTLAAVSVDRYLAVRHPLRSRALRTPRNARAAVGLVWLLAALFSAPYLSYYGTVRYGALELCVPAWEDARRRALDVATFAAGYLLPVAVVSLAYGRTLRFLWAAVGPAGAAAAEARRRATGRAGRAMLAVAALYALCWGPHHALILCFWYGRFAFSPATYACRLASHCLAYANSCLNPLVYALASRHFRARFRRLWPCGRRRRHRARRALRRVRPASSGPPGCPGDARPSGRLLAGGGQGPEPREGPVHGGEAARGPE
5-hydroxytryptamine receptor 5A, sequence (P47898 whole entry): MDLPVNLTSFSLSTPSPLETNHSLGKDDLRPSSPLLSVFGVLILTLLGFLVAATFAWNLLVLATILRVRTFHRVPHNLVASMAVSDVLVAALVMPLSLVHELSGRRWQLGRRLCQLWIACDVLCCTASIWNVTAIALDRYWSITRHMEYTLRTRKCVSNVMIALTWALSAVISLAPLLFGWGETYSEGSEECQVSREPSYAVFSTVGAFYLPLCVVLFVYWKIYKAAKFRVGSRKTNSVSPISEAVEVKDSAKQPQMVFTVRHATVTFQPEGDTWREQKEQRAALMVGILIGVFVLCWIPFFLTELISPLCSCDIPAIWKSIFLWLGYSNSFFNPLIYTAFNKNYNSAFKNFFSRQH
Hexokinase-1, sequence (P19367 whole entry): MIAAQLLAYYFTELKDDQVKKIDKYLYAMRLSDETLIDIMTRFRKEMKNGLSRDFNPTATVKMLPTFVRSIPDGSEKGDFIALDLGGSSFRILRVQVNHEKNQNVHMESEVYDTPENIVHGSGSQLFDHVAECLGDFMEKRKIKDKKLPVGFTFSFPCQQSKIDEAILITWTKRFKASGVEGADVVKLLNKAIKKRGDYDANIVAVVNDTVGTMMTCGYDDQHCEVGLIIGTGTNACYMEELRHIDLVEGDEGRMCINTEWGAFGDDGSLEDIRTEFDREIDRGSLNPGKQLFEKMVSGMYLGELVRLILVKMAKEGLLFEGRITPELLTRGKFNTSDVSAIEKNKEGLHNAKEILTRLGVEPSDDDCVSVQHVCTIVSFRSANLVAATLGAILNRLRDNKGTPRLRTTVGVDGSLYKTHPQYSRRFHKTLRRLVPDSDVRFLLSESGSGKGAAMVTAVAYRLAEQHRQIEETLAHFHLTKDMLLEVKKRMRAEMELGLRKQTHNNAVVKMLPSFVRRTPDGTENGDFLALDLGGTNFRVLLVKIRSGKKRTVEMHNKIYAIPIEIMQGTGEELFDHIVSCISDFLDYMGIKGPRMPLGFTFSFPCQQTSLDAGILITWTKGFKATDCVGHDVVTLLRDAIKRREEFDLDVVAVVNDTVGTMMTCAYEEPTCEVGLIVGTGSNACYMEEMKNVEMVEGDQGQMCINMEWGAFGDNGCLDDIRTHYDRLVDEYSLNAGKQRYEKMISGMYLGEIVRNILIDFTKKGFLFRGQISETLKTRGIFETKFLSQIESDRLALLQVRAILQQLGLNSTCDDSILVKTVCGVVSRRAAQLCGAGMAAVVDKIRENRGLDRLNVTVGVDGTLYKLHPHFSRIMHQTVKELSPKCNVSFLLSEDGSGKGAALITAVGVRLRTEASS
Galanin receptor type 2, sequence (O43603 whole entry): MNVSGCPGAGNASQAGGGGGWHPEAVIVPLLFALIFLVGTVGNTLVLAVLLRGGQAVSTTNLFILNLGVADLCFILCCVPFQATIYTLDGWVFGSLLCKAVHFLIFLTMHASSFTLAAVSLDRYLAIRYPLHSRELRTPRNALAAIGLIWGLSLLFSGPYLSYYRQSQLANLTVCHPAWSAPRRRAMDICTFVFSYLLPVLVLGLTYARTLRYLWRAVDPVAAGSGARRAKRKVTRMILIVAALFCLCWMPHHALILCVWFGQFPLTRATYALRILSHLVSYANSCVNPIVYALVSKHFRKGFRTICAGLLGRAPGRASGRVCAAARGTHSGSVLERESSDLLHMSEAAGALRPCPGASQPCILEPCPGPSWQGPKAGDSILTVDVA

CCOc1cccc(C2C(C(=O)c3ccc(C)o3)=C(O)C(=O)N2Cc2ccccc2)c1 (centres undefined)
CC50 [1]: > 100 µM (inactive) | IC50 [2]: 4.29 µM (active)

Cc1ccccc1N1C(=O)c2ccccc2C1Nc1ccccc1 (centres undefined)
IC50 [3]: > 80 µM (inactive) | IC50 [4]: > 80 µM (inactive)

O=[N+]([O-])c1cccc(COc2cccc(CN3CCCCC3)c2)c1
AC50 [5]: 21.2 µM (active)

O=C(Nc1ccc(O)cc1)c1cc2ccccc2c(=O)s1
AC50 [6]: > 350 µM (inactive) | IC50 [7]: 23.3 µM (active)

CN(C)CCCN(C(=O)c1ccc(Br)s1)c1nc2cc3c(cc2s1)OCCO3
EC50 [8]: > 92.5 µM (inactive) | EC50 [9]: > 92.5 µM (inactive) | AC50 [10]: 21.1 µM (active) | EC50 [11]: > 92.5 µM (inactive)

COc1ccc(CCNc2ncnc3sccc23)cc1OC
IC50 [12]: > 80 µM (inactive) | AC50 [13]: 710 nM (active) | EC50 [14]: > 29.9 µM (inactive) | IC50 [15]: > 80 µM (inactive) | IC50 [16]: 1.97 µM (active) | AC50 [17]: 1.5 µM (active) | AC50 [18]: < 260 nM (active) | IC50 [19]: 371 nM (active)

CCOC(=O)c1cc([N+](=O)[O-])c([N+](=O)[O-])cc1NC(C)=O
IC50 [20]: > 66.6 µM (inactive) | CC50 [21]: 13.1 µM (active) | AC50 [22]: 24.2 µM (active) | AC50 [23]: > 35 µM (active) | EC50 [24]: 4.65 µM (inconclusive) | IC50 [25]: 9.64 µM (active) | AC50 [26]: > 35 µM (active) | IC50 [27]: 10.3 µM (not active) | EC50 [28]: 2.01 µM (active) | AC50 [29]: 2.59 µM (active)
